Source: patent publication US9796704B2, “Substituted quinazolines as receptor-type kinase inhibitors” (Symphony Evolution, Inc., priority 2002, dated 2017)
Read-outs that look alike come from different tables or passages of the source.

Key:
[1] = molecular target: EphB4 (Homo sapiens (Human), UniProt P54760); assay: EphB4 kinase inhibition, 33P phosphoryl transfer assay (radiometric); type: biochemical
[2] = molecular target: ErbB2 (Homo sapiens (Human), UniProt P04626); assay: ErbB2 kinase inhibition, AlphaScreen; type: biochemical
Experimental: Kinase activity and compound inhibition are investigated using one or more of the three assay formats described below. The ATP concentrations are selected near its Michaelis-Menten constant (KM) for each individual kinase. Dose-response experiments are performed at ten different inhibitor concentrations in a 384-well plate format. […] These parameters are obtained by nonlinear regression algorithm built into ActivityBase software (available from ID Business Solutions Ltd., of Guildford, Surrey, UK). ^33P Phosphoryl Transfer Assay (Radiometric)

[3] = molecular target: KDR (Homo sapiens (Human), UniProt P35968); assay: KDR kinase inhibition, luciferase-coupled chemiluminescent assay (LCCA)
Chain of KDR (P35968 807-1356): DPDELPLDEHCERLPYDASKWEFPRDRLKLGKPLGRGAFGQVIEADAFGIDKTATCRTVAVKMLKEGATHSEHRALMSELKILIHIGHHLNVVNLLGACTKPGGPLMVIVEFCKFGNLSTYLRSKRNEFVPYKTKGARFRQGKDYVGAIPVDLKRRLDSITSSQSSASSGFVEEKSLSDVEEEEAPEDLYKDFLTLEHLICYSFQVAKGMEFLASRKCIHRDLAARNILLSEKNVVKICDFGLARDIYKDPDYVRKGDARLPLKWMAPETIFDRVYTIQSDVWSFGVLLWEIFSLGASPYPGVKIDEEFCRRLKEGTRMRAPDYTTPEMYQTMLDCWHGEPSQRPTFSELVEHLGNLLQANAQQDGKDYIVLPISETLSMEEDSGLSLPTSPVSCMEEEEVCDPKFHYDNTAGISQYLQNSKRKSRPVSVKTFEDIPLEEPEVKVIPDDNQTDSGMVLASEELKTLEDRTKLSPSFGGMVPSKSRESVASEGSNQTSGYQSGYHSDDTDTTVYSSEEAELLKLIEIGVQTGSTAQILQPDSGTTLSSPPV
Experimental: (§1) Kinase activity and compound inhibition are investigated using one or more of the three assay formats described below. The ATP concentrations are selected near its Michaelis-Menten constant (KM) for each individual kinase. Dose-response experiments are performed at ten different inhibitor concentrations in a 384-well plate format. […] Typically H is close to unity.
(§2) In the LCCA assays, kinase activity is measured by the ATP consumption that is accurately measured by luciferase-coupled chemiluminescence. Greiner 384-well white clear bottom medium binding plates are used for LCCA. Briefly the kinase reaction is initiated by mixing compounds, ATP and kinases in a 20 μL volume. At the end of the kinase reaction, a 20 μL luciferase-luciferin mix is added and the chemiluminescent signal is read on a Wallac Victor^2 reader.

[4] = molecular target: EGFR (Homo sapiens (Human), UniProt P00533); assay: EGFR kinase inhibition, luciferase-coupled chemiluminescent assay (LCCA)
[5] = molecular target: EphA2 (Homo sapiens (Human), UniProt P29317); assay: EphA2 kinase inhibition, luciferase-coupled chemiluminescent assay (LCCA)
Chain of EphA2 (P29317 598-890): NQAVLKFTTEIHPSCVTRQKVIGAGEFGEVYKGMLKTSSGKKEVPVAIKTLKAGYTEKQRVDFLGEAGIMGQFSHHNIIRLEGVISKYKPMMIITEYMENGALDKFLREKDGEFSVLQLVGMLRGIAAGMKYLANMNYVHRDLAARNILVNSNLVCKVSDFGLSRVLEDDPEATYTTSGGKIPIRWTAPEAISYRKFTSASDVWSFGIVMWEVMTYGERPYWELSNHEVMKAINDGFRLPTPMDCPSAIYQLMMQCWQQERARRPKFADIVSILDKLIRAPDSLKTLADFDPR
Experimental: as §1, §2

Chain of EphB4 (P54760 605-890): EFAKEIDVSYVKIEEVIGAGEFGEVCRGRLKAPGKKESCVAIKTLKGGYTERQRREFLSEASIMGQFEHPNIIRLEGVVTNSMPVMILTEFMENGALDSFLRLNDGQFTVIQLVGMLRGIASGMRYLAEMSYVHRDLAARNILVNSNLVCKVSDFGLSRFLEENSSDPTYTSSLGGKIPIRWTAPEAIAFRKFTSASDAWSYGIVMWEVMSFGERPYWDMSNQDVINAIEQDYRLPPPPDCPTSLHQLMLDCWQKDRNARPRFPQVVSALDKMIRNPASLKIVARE

| Compound | IC50 [1] [nM] | IC50 [2] [nM] | IC50 ([3]; read-out: KDR IC50) [nM] | IC50 ([4]; read-out: EGFR IC50) [nM] | IC50 ([5]; read-out: EphA2 IC50) [nM] | IC50 [3] [nM] | IC50 [4] [nM] | IC50 [5] [nM] |
| --- | --- | --- | --- | --- | --- | --- | --- | --- |
| N-(3,4-dichlorophenyl)-7-{[(5-ethyl-4,5,6,7-tetrahydro[1,3]thiazolo[5,4-c]pyridin-2-yl)methyl]oxy}-6-(methyloxy)quinazolin-4-amine hydrochloride [Example 35] | 50 to 1000 | 50 to 1000 | < 50 | < 50 | 50 to 1000 | – | – | – |
| N-(3,4-dichlorophenyl)-6-(methyloxy)-7-{[(5-methyl-4,5,6,7-tetrahydro[1,3]thiazolo[5,4-c]pyridin-2-yl)methyl]oxy}quinazolin-4-amine hydrochloride [Example 34] | 50 to 1000 | < 50 | 50 to 1000 | < 50 | 50 to 1000 | – | – | – |
| COc1cc2c(Nc3ccc(Cl)c(Cl)c3)ncnc2cc1OCc1ccc2nc(C(F)(F)F)cc(Cl)c2c1 [Example 236, 7-({[4-chloro-2-(trifluoromethyl)quinolin-6-yl]methyl}oxy)-N-(3,4-dichlorophenyl)-6-(methyloxy)quinazolin-4-amine] | < 50 | < 50 | < 50 | < 50 | < 50 | – | – | – |
| COc1cc2c(Nc3ccc(Cl)c(Cl)c3)ncnc2cc1OCc1csc(N2CCOCC2)n1 [Example 204, N-(3,4-dichlorophenyl)-6-(methyloxy)-7-{[(2-morpholin-4-yl-1,3-thiazol-4-yl)methyl]oxy}quinazolin-4-amine] | < 50 | < 50 | < 50 | < 50 | < 50 | – | – | – |
| N-(3,4-dichlorophenyl)-7-({[2-(1-ethylpiperidin-4-yl)-1,3-thiazol-4-yl]methyl}oxy)-6-(methyloxy)quinazolin-4-amine hydrochloride [Example 37] | 50 to 1000 | < 50 | – | < 50 | < 50 | – | – | – |
| COc1cc2c(Nc3ccc(Cl)c(Cl)c3)ncnc2cc1OCc1csc(COC(=O)c2ccccc2)n1 [Example 245, [4-({[4-[(3,4-dichlorophenyl)amino]-6-(methyloxy)quinazolin-7-yl]oxy}methyl)-1,3-thiazol-2-yl]methyl benzoate] | < 50 | < 50 | < 50 | < 50 | < 50 | – | – | – |
| COc1cc2c(Nc3ccc(Cl)c(Cl)c3)ncnc2cc1OCC1CN(C(=NC#N)N2CCCCC2)CCO1 (stereo in doubt) [Example 216, [(1E)-[2-({[4-[(3,4-dichlorophenyl)amino]-6-(methyloxy)quinazolin-7-yl]oxy}methyl)morpholin-4-yl](piperidin-1-yl)methylidene]cyanamide] | < 50 | < 50 | – | – | – | 50 to 1000 | < 50 | 50 to 1000 |
| COc1cc2c(Nc3ccc(Cl)c(Cl)c3)ncnc2cc1OCc1cscn1 [Example 170, N-(3,4-dichlorophenyl)-6-(methyloxy)-7-[(1,3-thiazol-4-ylmethyl)oxy]quinazolin-4-amine] | < 50 | < 50 | – | < 50 | < 50 | – | – | – |
| COc1cc2c(Nc3ccc(Cl)c(Cl)c3)ncnc2cc1OCc1nc(CN2CCN(C)CC2)cs1 [Example 207, N-(3,4-dichlorophenyl)-6-(methyloxy)-7-[({4-[(4-methylpiperazin-1-yl)methyl]-1,3-thiazol-2-yl}methyl)oxy]quinazolin-4-amine] | < 50 | < 50 | – | < 50 | 50 to 1000 | – | – | – |
| COc1cc2c(Nc3ccc(Cl)c(Cl)c3)ncnc2cc1OCc1nc(-c2ccccn2)cs1 [Example 202, N-(3,4-dichlorophenyl)-6-(methyloxy)-7-{[(4-pyridin-2-yl-1,3-thiazol-2-yl)methyl]oxy}quinazolin-4-amine] | < 50 | < 50 | – | < 50 | 50 to 1000 | – | – | – |
| COc1cc2c(Nc3ccc(Cl)c(Cl)c3)ncnc2cc1OCc1noc(-c2ccc(C(F)(F)F)cc2)n1 [Example 167, N-(3,4-dichlorophenyl)-6-(methyloxy)-7-[({5-[4-(trifluoromethyl)phenyl]-1,2,4-oxadiazol-3-yl}methyl)oxy]quinazolin-4-amine] | < 50 | < 50 | – | < 50 | < 50 | – | – | – |
| COc1cc2c(Nc3ccc(Cl)c(Cl)c3)ncnc2cc1OCc1c(-c2ccccc2)nn(C)c1Cl [Example 175, 7-{[(5-chloro-1-methyl-3-phenyl-1H-pyrazol-4-yl)methyl]oxy}-N-(3,4-dichlorophenyl)-6-(methyloxy)quinazolin-4-amine] | < 50 | < 50 | – | < 50 | – | – | – | – |
| COc1cc2c(Nc3ccc(Cl)c(Cl)c3)ncnc2cc1OCc1ccc2nonc2c1 [Example 163, 7-[(2,1,3-benzoxadiazol-5-ylmethyl)oxy]-N-(3,4-dichlorophenyl)-6-(methyloxy)quinazolin-4-amine] | < 50 | < 50 | – | < 50 | – | – | – | – |
| COc1cc2c(Nc3ccc(Cl)c(Cl)c3)ncnc2cc1OCc1nc(N2CCN(C(=O)OC(C)(C)C)CC2)no1 [Example 215, 1,1-dimethylethyl 4-[5-({[4-[(3,4-dichlorophenyl)amino]-6-(methyloxy)quinazolin-7-yl]oxy}methyl)-1,2,4-oxadiazol-3-yl]piperazine-1-carboxylate] | < 50 | < 50 | – | < 50 | 50 to 1000 | – | – | – |
| COc1cc2c(Nc3ccc(Cl)c(Cl)c3)ncnc2cc1OCc1noc(C2CCCCN2C)n1 (stereo not drawn) [Example 154, N-(3,4-dichlorophenyl)-6-(methyloxy)-7-({[5-(1-methylpiperidin-2-yl)-1,2,4-oxadiazol-3-yl]methyl}oxy)quinazolin-4-amine] | < 50 | < 50 | – | < 50 | – | – | – | – |

Further lines, results first:

| IC50 [1] [nM] | IC50 [2] [nM] | IC50 ([3]; read-out: KDR IC50) [nM] | IC50 ([4]; read-out: EGFR IC50) [nM] | IC50 ([5]; read-out: EphA2 IC50) [nM] | IC50 [3] [nM] | IC50 [4] [nM] | IC50 [5] [nM] | Compound |
| --- | --- | --- | --- | --- | --- | --- | --- | --- |
| < 50 | < 50 | < 50 | < 50 | < 50 | – | – | – | COc1cc2c(Nc3ccc(Cl)c(Cl)c3)ncnc2cc1OCc1csc([C@@H]2CCCN2)n1 [Example 244, N-(3,4-dichlorophenyl)-6-(methyloxy)-7-[({2-[(2S)-pyrrolidin-2-yl]-1,3-thiazol-4-yl}methyl)oxy]quinazolin-4-amine] |
| < 50 | < 50 | < 50 | < 50 | < 50 | – | – | – | COc1cc2c(Nc3cc(Br)cc(C(F)(F)F)c3)ncnc2cc1O[C@@H]1CO[C@@H]2[C@H]1OC[C@H]2F [Example 127, 1,4:3,6-dianhydro-5-O-[4-{[3-bromo-5-(trifluoromethyl)phenyl]amino}-6-(methyloxy)quinazolin-7-yl]-2-deoxy-2-fluoro-D-iditol] |
| < 50 | < 50 | < 50 | < 50 | < 50 | – | – | – | COc1cc2c(Nc3ccc(Cl)c(Cl)c3)ncnc2cc1O[C@@H]1CO[C@@H]2[C@H]1OC[C@H]2F [Example 119, 1,4:3,6-dianhydro-2-deoxy-5-O-[4-[(3,4-dichlorophenyl)amino]-6-(methyloxy)quinazolin-7-yl]-2-fluoro-D-iditol] |
| < 50 | < 50 | < 50 | < 50 | < 50 | – | – | – | COc1cc2c(Nc3cc(Cl)c(Cl)cc3F)ncnc2cc1O[C@H]1CO[C@H]2[C@@H]1OC[C@@H]2OC [Example 69, 1,4:3,6-dianhydro-2-O-[4-[(4,5-dichloro-2-fluorophenyl)amino]-6-(methyloxy)quinazolin-7-yl]-5-O-methyl-L-iditol] |
| < 50 | < 50 | – | < 50 | 50 to 1000 | – | – | – | COc1cc2c(Nc3ccc(Cl)c(Cl)c3)ncnc2cc1OCC1CCC1 [Example 187, 7-[(cyclobutylmethyl)oxy]-N-(3,4-dichlorophenyl)-6-(methyloxy)quinazolin-4-amine] |
| < 50 | < 50 | – | < 50 | 50 to 1000 | – | – | – | COc1cc2c(Nc3ccc(Cl)c(Cl)c3)ncnc2cc1OCC1CCCO1 (stereo not drawn) [Example 183, N-(3,4-dichlorophenyl)-6-(methyloxy)-7-[(tetrahydrofuran-2-ylmethyl)oxy]quinazolin-4-amine] |
| < 50 | < 50 | – | < 50 | 50 to 1000 | – | – | – | COc1cc2c(Nc3ccc(Br)c(Cl)c3)ncnc2cc1O[C@H]1CO[C@@H]2CCO[C@H]12 [Example 77, 1,4:3,6-dianhydro-2-O-[4-[(4-bromo-3-chlorophenyl)amino]-6-(methyloxy)quinazolin-7-yl]-5-deoxy-D-xylo-hexitol] |
| < 50 | – | < 50 | < 50 | < 50 | – | – | – | COc1cc2c(Nc3cc(F)c(F)cc3F)ncnc2cc1O[C@@H]1CO[C@@H]2[C@H]1OC[C@H]2F [Example 99, 1,4:3,6-dianhydro-2-deoxy-2-fluoro-5-O-{6-(methyloxy)-4-[(2,4,5-trifluorophenyl)amino]quinazolin-7-yl}-D-iditol] |
| < 50 | < 50 | – | < 50 | – | – | – | – | COc1cc2c(Nc3ccc(Cl)c(Cl)c3)ncnc2cc1OCc1cc(C)on1 [Example 160, N-(3,4-dichlorophenyl)-7-{[(5-methylisoxazol-3-yl)methyl]oxy}-6-(methyloxy)quinazolin-4-amine] |
